The record followed here is patent US10124004B2, “Pyrido[3,4-d]pyrimidine derivative and pharmaceutically acceptable salt thereof” (Teijin Pharma Limited, priority 2015, dated 2018).

One test concerns the target T1, CDK4/cyclin D3 (Homo sapiens, UniProt P11802).
T1 construct: purchased Carna Biosciences, Inc. QS S Assist CDK4/Cyclin D3_FP Kit
Put plainly: Human CDK4/cyclin D3 inhibitory activity (QS S Assist CDK4/Cyclin D3_FP Kit, IMAP fluorescence polarization). Format: biochemical. As to conditions: 50% inhibitory concentration against CDK4/cyclin D3, given as class symbol. The method, boiled down: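 IMAP fluorescence-polarization kinase assay with kit ATP/substrate/metal mix and 12.5 to 25 ng/well enzyme in 20 mM HEPES pH 7.4, 0.01% Tween20, 2 mM DTT. Reaction ran 45 min at room temperature, then binding reagent was added for 30 min in the dark. IC50 was taken from dose-response fits of percent inhibition.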
In general terms: Fluorescence polarisation rises when a labelled molecule tumbles more slowly, as on binding a larger partner.

Another test concerns the target T2, CDK2/cyclin A2 (Homo sapiens, UniProt P24941).
T2 construct: purchased Carna Biosciences, Inc. QS S Assist CDK2/Cyclin A2_FP Kit
Nature of the test: Human CDK2/cyclin A2 inhibitory activity (QS S Assist CDK2/Cyclin A2_FP Kit, IMAP fluorescence polarization). Format: biochemical. To be noted: 50% inhibitory concentration against CDK2/cyclin A2, given as class symbol. The gist of the method: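 Kinase activity read as fluorescence polarization (485/535 nm) after phosphorylated fluorescent substrate binds IMAP reagent (30 min, RT, dark). Enzyme (2.5 ng/well) reacted 60 min at RT with ATP/substrate/metal in HEPES pH 7.4 buffer with Tween 20 and DTT; no-enzyme wells define 0% activity; IC50 by curve fit.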

T1 sequence (P11802 whole entry): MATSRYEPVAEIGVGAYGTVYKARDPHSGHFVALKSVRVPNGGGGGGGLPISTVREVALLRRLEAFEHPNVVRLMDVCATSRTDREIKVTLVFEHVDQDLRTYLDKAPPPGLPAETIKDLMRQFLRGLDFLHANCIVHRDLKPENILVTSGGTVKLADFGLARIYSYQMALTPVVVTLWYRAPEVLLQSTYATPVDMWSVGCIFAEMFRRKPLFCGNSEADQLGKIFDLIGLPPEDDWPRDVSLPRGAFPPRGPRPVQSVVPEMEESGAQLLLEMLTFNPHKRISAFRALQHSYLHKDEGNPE
T1 sequence (P30281 whole entry partner): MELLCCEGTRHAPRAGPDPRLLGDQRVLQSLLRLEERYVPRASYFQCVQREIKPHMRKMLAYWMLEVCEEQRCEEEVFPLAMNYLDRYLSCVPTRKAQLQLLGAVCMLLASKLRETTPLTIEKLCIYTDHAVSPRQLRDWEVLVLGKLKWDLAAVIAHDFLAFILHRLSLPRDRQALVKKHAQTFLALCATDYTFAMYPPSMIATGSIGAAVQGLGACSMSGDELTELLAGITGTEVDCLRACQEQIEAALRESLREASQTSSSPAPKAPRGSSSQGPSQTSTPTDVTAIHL

For `CCCNc1nc([C@@H](C)O)cc2cnc(Nc3ccc(CN4CCC(CO)CC4)cn3)nc12` [Compound 1040], the half-inhibitory concentration (IC50) – broadly, the concentration that inhibits the measured activity by half – was less than 10 nM against CDK4/cyclin D3 and not below 100 nM against CDK2/cyclin A2.
Take `CC(C)Nc1nc([C@@H](C)O)cc2cnc(Nc3ccc(CN4CCC(O)C4)cn3)nc12` (stereo partly shown) [Compound 1041]: the half-maximal inhibitory concentration (IC50) at CDK4/cyclin D3 was less than 10 nM; on CDK2/cyclin A2, not below 100 nM.
Take `CC(C)Nc1nc(C2CC(F)(F)C2)cc2cnc(Nc3ccc(N4CCNCC4=O)cn3)nc12` [Compound 1042]: the IC50 at CDK4/cyclin D3 is 10 to 100 nM; on CDK2/cyclin A2 it was not below 100 nM.
Take `C[C@@H](O)c1cc2cnc(Nc3ccc(N4CCNCC4=O)cn3)nc2c(NCC2CC2)n1` [Compound 1043]: the results for the IC50 on CDK4/cyclin D3 and at CDK2/cyclin A2 were less than 10 nM and not below 100 nM, respectively.
`C[C@@H](O)c1cc2cnc(Nc3ccc(N4CCNCC4=O)cn3)nc2c(NC2CC2)n1` [Compound 1044]: the IC50 against CDK4/cyclin D3 was 10 to 100 nM; on CDK2/cyclin A2, not below 100 nM.
Regarding `C[C@@H](O)c1cc2cnc(Nc3ccc(N4CCNCC4=O)cn3)nc2c(NC2CCC2)n1` [Compound 1045], the concentration for half-maximal inhibition (IC50) is less than 10 nM against CDK4/cyclin D3 and not below 100 nM on CDK2/cyclin A2.
As to `CCNc1nc([C@@H](C)O)cc2cnc(Nc3ccc(CN4CCN(CCO)CC4)c(C)n3)nc12` [Compound 1046], the IC50 is less than 10 nM against CDK4/cyclin D3 and not below 100 nM at CDK2/cyclin A2.
With `CCCNc1nc([C@@H](C)O)cc2cnc(Nc3ccc(CN4CCN(CCO)CC4)c(C)n3)nc12` [Compound 1047], the figures for the IC50 on CDK4/cyclin D3 and at CDK2/cyclin A2 were less than 10 nM and not below 100 nM, respectively.
Turning to `Cc1nc(Nc2ncc3cc([C@@H](C)O)nc(NC4CCC4)c3n2)ccc1N1CCNCC1=O` [Compound 1048], the IC50 was less than 10 nM at CDK4/cyclin D3 and not below 100 nM against CDK2/cyclin A2.
For `CC(C)Nc1nc([C@@H](C)O)cc2cnc(Nc3cnc(CN4CCNCC4)cn3)nc12` [Compound 1049], the IC50 was less than 10 nM against CDK4/cyclin D3 and not below 100 nM against CDK2/cyclin A2.
Regarding `CC(C)Nc1nc([C@@H](C)O)cc2cnc(Nc3cnc(CN4CCN(CCO)CC4)cn3)nc12` [Compound 1050], the half-maximal inhibitory concentration (IC50) is less than 10 nM at CDK4/cyclin D3 and not below 100 nM against CDK2/cyclin A2.
As to `C[C@@H](O)c1cc2cnc(Nc3ccc(N4CCNCC4)cn3)nc2c(NCC2CC2)n1` [Compound 1051], the IC50 is less than 10 nM against CDK4/cyclin D3 and not below 100 nM at CDK2/cyclin A2.
With `CC(=O)c1cc2cnc(Nc3ccc(N4CCNCC4)cn3)nc2c(NCC2CC2)n1` [Compound 1052], the values for the half-inhibitory concentration (IC50) at CDK4/cyclin D3 and against CDK2/cyclin A2 were 10 to 100 nM and not below 100 nM, respectively.
Consider `CCNc1nc([C@@H](C)O)cc2cnc(Nc3cc(C)c(CN4CCN(CCO)CC4)cn3)nc12` [Compound 1053], for which the values for the IC50 on CDK4/cyclin D3 and at CDK2/cyclin A2 were 10 to 100 nM and not below 100 nM, respectively.
For the molecule `CCCNc1nc([C@@H](C)O)cc2cnc(Nc3cc(C)c(CN4CCN(CCO)CC4)cn3)nc12` [Compound 1054], the half-maximal inhibitory concentration (IC50) at CDK4/cyclin D3 was 10 to 100 nM; at CDK2/cyclin A2, not below 100 nM.
Regarding `Cc1cc(Nc2ncc3cc([C@@H](C)O)nc(NC(C)C)c3n2)ncc1CN1CCN(CCO)CC1` [Compound 1055], the IC50 is 10 to 100 nM on CDK4/cyclin D3 and not below 100 nM on CDK2/cyclin A2.
The like results for `COC(=O)N1CCN(c2ccc(Nc3ncc4cc([C@@H](C)OC)nc(N[C@H]5CCCOC5)c4n3)nn2)CC1` [Compound 1056] were, in that order, 10 to 100 nM and not below 100 nM.
Regarding `CC(C)Nc1nc([C@@H](C)O)cc2cnc(Nc3ccc(CN4CCCC(O)C4)cn3)nc12` (stereo partly shown) [Compound 1057], the half-inhibitory concentration (IC50) was less than 10 nM at CDK4/cyclin D3 and not below 100 nM on CDK2/cyclin A2.
As to `CC(C)Nc1nc([C@@H](C)O)cc2cnc(Nc3ccc(O[C@@H]4CCN(CCO)C4)cn3)nc12` [Compound 1058], the IC50 is less than 10 nM on CDK4/cyclin D3 and not below 100 nM against CDK2/cyclin A2.
For the molecule `CCCNc1nc([C@@H](C)O)cc2cnc(Nc3ccc(O[C@@H]4CCN(CCO)C4)cn3)nc12` [Compound 1059], the values for the IC50 against CDK4/cyclin D3 and against CDK2/cyclin A2 were less than 10 nM and not below 100 nM, respectively.
As to `CCNc1nc([C@@H](C)O)cc2cnc(Nc3ccc(CN4CCC(O)CC4)cn3)nc12` [Compound 1060], the IC50 at CDK4/cyclin D3 is less than 10 nM; at CDK2/cyclin A2, not below 100 nM.
Regarding `CCCCNc1nc([C@@H](C)O)cc2cnc(Nc3ccc(CN4CCC(O)CC4)cn3)nc12` [Compound 1061], the IC50 was less than 10 nM against CDK4/cyclin D3 and not below 100 nM at CDK2/cyclin A2.
On to `C[C@@H](O)c1cc2cnc(Nc3ccc(CN4CCC(O)CC4)cn3)nc2c(NC2CCC2)n1` [Compound 1063], for which the values for the IC50 at CDK4/cyclin D3 and against CDK2/cyclin A2 were less than 10 nM and not below 100 nM, respectively.
Regarding `C[C@@H](O)c1cc2cnc(Nc3ccc(CN4CCC(O)CC4)cn3)nc2c(N[C@H]2CC[C@H](O)CC2)n1` [Compound 1064], the values for the half-inhibitory concentration (IC50) against CDK4/cyclin D3 and against CDK2/cyclin A2 were less than 10 nM and not below 100 nM, respectively.
Consider `C[C@@H](O)c1cc2cnc(Nc3ccc(CN4CCC(O)CC4)cn3)nc2c(NCC2CCOCC2)n1` [Compound 1065], for which the IC50 against CDK4/cyclin D3 was less than 10 nM; against CDK2/cyclin A2 it was not below 100 nM.
On to `CCC(OC)c1cc2cnc(Nc3ccc(CN4CCNCC4)cn3)nc2c(NC(C)C)n1` (stereo not shown) [Compound 1066], for which the IC50 on CDK4/cyclin D3 is 10 to 100 nM; at CDK2/cyclin A2, not below 100 nM.
For `CCC(OC)c1cc2cnc(Nc3ccc(CN4CCNCC4)cn3)nc2c(NC(C)C)n1` (stereo not shown) [Compound 1067], the values for the IC50 against CDK4/cyclin D3 and against CDK2/cyclin A2 were less than 10 nM and not below 100 nM, respectively.
For `CCC(OC)c1cc2cnc(Nc3ccc(N4CCNCC4)nn3)nc2c(NC(C)C)n1` (stereo not shown) [Compound 1068], the concentration for half-maximal inhibition (IC50) on CDK4/cyclin D3 and against CDK2/cyclin A2 was not below 100 nM in each case.
With `CCC(OC)c1cc2cnc(Nc3ccc(N4CCNCC4)nn3)nc2c(NC(C)C)n1` (stereo not shown) [Compound 1069], the figures for the IC50 against CDK4/cyclin D3 and against CDK2/cyclin A2 were 10 to 100 nM and not below 100 nM, respectively.
As for `C[C@@H](O)c1cc2cnc(Nc3ccc(CN4CCN(CCO)CC4)cn3)nc2c(NC2CCCC2)n1` [Compound 1070], the IC50 at CDK4/cyclin D3 is less than 10 nM; on CDK2/cyclin A2 it was not below 100 nM.
For `C[C@@H](O)c1cc2cnc(Nc3ccc(CN4CCN(CCO)CC4)cn3)nc2c(NC(C)(C)C)n1` [Compound 1071], the IC50 was less than 10 nM against CDK4/cyclin D3 and not below 100 nM at CDK2/cyclin A2.
As to `CCNc1nc([C@@H](C)O)cc2cnc(Nc3ccc(CN4CCN(CCCO)CC4)cn3)nc12` [Compound 1072], the IC50 on CDK4/cyclin D3 is less than 10 nM; on CDK2/cyclin A2 it was not below 100 nM.
Take `CCNc1nc([C@@H](C)O)cc2cnc(Nc3ccc(CN4CCN(CC(C)(C)O)CC4)cn3)nc12` [Compound 1073]: the IC50 is less than 10 nM at CDK4/cyclin D3 and not below 100 nM against CDK2/cyclin A2.
In the same order, the values of `C[C@@H](O)c1cc2cnc(Nc3ccc(CN4CCN(CCO)CC4)cn3)nc2c(NCCCF)n1` [Compound 1074] are less than 10 nM and not below 100 nM.
`CCCNc1nc([C@@H](C)O)cc2cnc(Nc3ccc(CN4CCN(C[C@H](C)O)CC4)cn3)nc12` [Compound 1075]: the values for the IC50 on CDK4/cyclin D3 and against CDK2/cyclin A2 were less than 10 nM and not below 100 nM, respectively.
Turning to `CCCNc1nc([C@@H](C)O)cc2cnc(Nc3ccc(CN4CCN(CCO)C[C@H]4C)cn3)nc12` [Compound 1076], the IC50 on CDK4/cyclin D3 was less than 10 nM; on CDK2/cyclin A2, not below 100 nM.
Take `CCCNc1nc([C@@H](C)O)cc2cnc(Nc3ccc(CN4CCN(CCO)C[C@@H]4C)cn3)nc12` [Compound 1077]: the 50% inhibitory concentration (IC50) is less than 10 nM at CDK4/cyclin D3 and not below 100 nM at CDK2/cyclin A2.
Take `C[C@@H](O)c1cc2cnc(Nc3ccc(N4CCNCC4=O)cn3)nc2c(NC2CCCC2)n1` [Compound 1078]: the IC50 against CDK4/cyclin D3 was less than 10 nM; against CDK2/cyclin A2 it was not below 100 nM.
On to `C[C@@H](O)c1cc2cnc(Nc3ccc(N4CCNCC4=O)cn3)nc2c(NCCCF)n1` [Compound 1079], for which the results for the IC50 on CDK4/cyclin D3 and on CDK2/cyclin A2 were less than 10 nM and not below 100 nM, respectively.
For the molecule `CCNc1nc([C@@H](C)O)cc2cnc(Nc3ccc(CN4CCCC(O)C4)cn3)nc12` (stereo partly shown) [Compound 1080], the IC50 against CDK4/cyclin D3 was less than 10 nM; on CDK2/cyclin A2 it was not below 100 nM.
The like results for `CCCNc1nc([C@@H](C)O)cc2cnc(Nc3ccc(CN4CCCC(O)C4)cn3)nc12` (stereo partly shown) [Compound 1081] were, in that order, less than 10 nM and not below 100 nM.
Turning to `C[C@@H](O)c1cc2cnc(Nc3ccc(CN4CCCC(O)C4)cn3)nc2c(NCC2CC2)n1` (stereo partly shown) [Compound 1083], the values for the IC50 against CDK4/cyclin D3 and at CDK2/cyclin A2 were less than 10 nM and not below 100 nM, respectively.
On to `C[C@@H](O)c1cc2cnc(Nc3ccc(CN4CCCC(O)C4)cn3)nc2c(NC2CCC2)n1` (stereo partly shown) [Compound 1084], for which the 50% inhibitory concentration (IC50) was less than 10 nM at CDK4/cyclin D3 and not below 100 nM against CDK2/cyclin A2.
The like results for `CC(C)CNc1nc([C@@H](C)O)cc2cnc(Nc3ccc(CN4CCCC(O)C4)cn3)nc12` (stereo partly shown) [Compound 1085] were, in that order, less than 10 nM and not below 100 nM.
`C[C@@H](O)c1cc2cnc(Nc3ccc(CN4CCCC(O)C4)cn3)nc2c(N[C@H]2CC[C@H](O)CC2)n1` (stereo partly shown) [Compound 1086]: the IC50 on CDK4/cyclin D3 is less than 10 nM; against CDK2/cyclin A2 it was not below 100 nM.
For the molecule `C[C@@H](O)c1cc2cnc(Nc3ccc(CN4CCCC(O)C4)cn3)nc2c(NCC2CCOCC2)n1` (stereo partly shown) [Compound 1087], the IC50 is less than 10 nM on CDK4/cyclin D3 and not below 100 nM on CDK2/cyclin A2.
Regarding `CC(C)Nc1nc([C@@H](C)O)cc2cnc(Nc3ccc(N4CCN(C(=O)CO)CC4)cn3)nc12` [Compound 1090], the figures for the IC50 at CDK4/cyclin D3 and against CDK2/cyclin A2 were less than 10 nM and not below 100 nM, respectively.
Consider `CCNc1nc([C@@H](C)O)cc2cnc(Nc3ccc(N4CCNCC4)c(C)n3)nc12` [Compound 1091], for which the results for the IC50 against CDK4/cyclin D3 and on CDK2/cyclin A2 were less than 10 nM and not below 100 nM, respectively.
In the same order, the values of `CCCNc1nc([C@@H](C)O)cc2cnc(Nc3ccc(N4CCNCC4)c(C)n3)nc12` [Compound 1092] are less than 10 nM and not below 100 nM.
With `Cc1nc(Nc2ncc3cc([C@@H](C)O)nc(NCC(C)C)c3n2)ccc1N1CCNCC1` [Compound 1093], the IC50 is less than 10 nM against CDK4/cyclin D3 and not below 100 nM at CDK2/cyclin A2.
